According to ChEMBL document CHEMBL5034001 (J Med Chem, 2021):
Calls of active or inactive are those of the source. The calls are words filed in the database; no cut-off is given here.

Key:
SR [1] = experiment: Down regulation of PYK2 in human SR cells at 0.1 to 1000 nM after 16 hrs by Western blot analysis; assay type: functional, cell-based; conditions: dose 0.1-1000 nM
SR [2] = experiment: Antiproliferative activity against human SR cells assessed as inhibition of cell growth incubated for 72 hrs by CCK8 assay; assay type: functional, cell-based
[3] = biological target: ALK tyrosine kinase receptor (Homo sapiens, UniProt Q9UM73); experiment: Induction of ALK degradation in human SR cells at 100 nM incubated with compound for 24 hrs followed by compound washout and measured upto 72 hrs by Western blot analysis; assay type: cell-based
[4] = biological target: Signal transducer and activator of transcription 3 (Homo sapiens) (UniProt P40763); experiment: Inhibition of STAT3 downstream signalling in human SR cells assessed as reduction in pSTAT3 level at 10 nM by Western blot analysis; assay type: cell-based
HEK-293T = experiment: Antiproliferative activity against human 293T cells overexpressing ALK G1202R mutant assessed as cell growth inhibition after 72 hrs; assay type: functional, cell-based
NCI-H1975 = experiment: Antiproliferative activity against human H1975 cells overexpressing EGFR L858R/T790M mutant assessed as cell growth inhibition after 72 hrs; assay type: functional, cell-based; conditions: NCI-H1975, 72 h
Calu-1 [5] = experiment: Induction of apoptosis in human Calu-1 cells at 100 nM after 72 hrs; assay type: functional, cell-based
NCI-H2228 = experiment: Down regulation of RSK1 in human NCI-H2228 cells at 1 to 1000 nM after 16 hrs by Western blot analysis; assay type: functional, cell-based; conditions: dose 1-1000 nM
A549 [6] = experiment: Down regulation of FAK in human A549 cells at 1 to 1000 nM after 16 hrs by Western blot analysis; assay type: functional, cell-based; conditions: dose 1-1000 nM
A549 [7] = experiment: Down regulation of RSK1 in human A549 cells at 1 to 1000 nM after 16 hrs by Western blot analysis; assay type: functional, cell-based; conditions: dose 1-1000 nM
Calu-1 [8] = experiment: Down regulation of RSK1 in human Calu-1 cells at 1 to 1000 nM after 16 hrs by Western blot analysis; assay type: functional, cell-based; conditions: dose 1-1000 nM
SR [9] = experiment: Down regulation of FER in human SR cells at 0.1 to 1000 nM after 16 hrs by Western blot analysis; assay type: functional, cell-based; conditions: dose 0.1-1000 nM
[10] = biological target: Focal adhesion kinase 1 (Homo sapiens) (UniProt Q05397); experiment: Induction of FAK degradation in human Calu-1 cells at 1 nM after 16 hrs by Western blot analysis; assay type: cell-based
[11] = biological target: Focal adhesion kinase 1 (Homo sapiens) (UniProt Q05397); experiment: Induction of FAK degradation in human MDA-MB-231 cells at 10 nM after 1 to 2 hrs by Western blot analysis; assay type: cell-based; conditions: time 1-2 hrs
MDA-MB-231 [12] = experiment: Down regulation of cyclin D1 protein expression in human MDA-MB-231 cells at 1 to 500 nM after 48 hrs by Western blot analysis; assay type: functional, cell-based; conditions: dose 1-500 nM
MDA-MB-231 [13] = experiment: Down regulation of C-myc protein expression in human MDA-MB-231 cells at 1 to 500 nM after 48 hrs by Western blot analysis; assay type: functional, cell-based; conditions: dose 1-500 nM
[14] = biological target: Leucine-rich repeat serine/threonine-protein kinase 2 (Homo sapiens) (UniProt Q5S007); experiment: Binding affinity to wild-type human partial length LRRK2 (H970 to E2527 residues) expressed in mammalian expression system assessed as residual binding level at 100 nM by Kinomescan method relative to control
[15] = system: Leucine-rich repeat serine/threonine-protein kinase 2 (Homo sapiens), Q5S007 [G2019S]; experiment: Binding affinity to human partial length LRRK2 G2019S mutant (H970 to E2527 residues) expressed in mammalian expression system assessed as residual binding level at 100 nM by Kinomescan method relative to control
[16] = biological target: Tyrosine-protein kinase JAK3 (Homo sapiens) (UniProt P52333); experiment: Binding affinity to wild-type human partial length JAK3 JH1 catalytic domain (I781 to S1124 residues) expressed in mammalian expression system assessed as residual binding level at 100 nM by Kinomescan method relative to control
[17] = biological target: Cyclin-G-associated kinase (Homo sapiens) (UniProt O14976); experiment: Binding affinity to wild-type human partial length GAK (G13 to Y338 residues) expressed in bacterial expression system assessed as residual binding level at 100 nM by Kinomescan method relative to control
[18] = biological target: Activated CDC42 kinase 1 (Homo sapiens) (UniProt Q07912); experiment: Binding affinity to wild-type human partial length TNK2 (S159 to D474 residues) expressed in bacterial expression system assessed as residual binding level at 100 nM by Kinomescan method relative to control
[19] = biological target: Serine/threonine-protein kinase 33 (Homo sapiens) (UniProt Q9BYT3); experiment: Binding affinity to wild-type human full length STK33 (M1 to L514 residues) expressed in bacterial expression system assessed as residual binding level at 100 nM by Kinomescan method relative to control
[20] = biological target: Focal adhesion kinase 1 (Homo sapiens) (UniProt Q05397); experiment: Binding affinity to wild-type human partial length FAK (D402 to R696 residues) expressed in bacterial expression system assessed as residual binding level at 100 nM by Kinomescan method relative to control
[21] = system: Receptor-type tyrosine-protein kinase FLT3 (Homo sapiens), P36888 [UNDEFINED MUTATION]; experiment: Binding affinity to human partial length FLT3 ITD mutant expressed in bacterial expression system assessed as residual binding level at 100 nM by Kinomescan method relative to control
[22] = biological target: Non-receptor tyrosine-protein kinase TNK1 (Homo sapiens) (UniProt Q13470); experiment: Binding affinity to wild-type human full length TNK1 (M1 to P661 residues) expressed in bacterial expression system assessed as residual binding level at 100 nM by Kinomescan method relative to control
[23] = system: Receptor-type tyrosine-protein kinase FLT3 (Homo sapiens), P36888 [N841I]; experiment: Binding affinity to human partial length FLT3 N841I mutant (V592 to Y969 residues) expressed in bacterial expression system assessed as residual binding level at 100 nM by Kinomescan method relative to control
[24] = system: Epidermal growth factor receptor (Homo sapiens), P00533 [T790M]; experiment: Binding affinity to human partial length EGFR T790M mutant (R669 to G1022 residues) expressed in mammalian expression system assessed as residual binding level at 100 nM by Kinomescan method relative to control
[25] = system: Mast/stem cell growth factor receptor Kit (Homo sapiens), P10721 [D816V]; experiment: Binding affinity to human partial length KIT D816V mutant (I571 to D952 residues) expressed in bacterial expression system assessed as residual binding level at 100 nM by Kinomescan method relative to control
[26] = biological target: NUAK family SNF1-like kinase 2 (Homo sapiens) (UniProt Q9H093); experiment: Binding affinity to wild-type human partial length SNARK (P22 to A333 residues) expressed in mammalian expression system assessed as residual binding level at 100 nM by Kinomescan method relative to control
[27] = Half life in […] at 10 mg/kg, po or 2 mg/kg, iv measured upto 24 hrs; assay type: ADME, organism-based; conditions: in vivo
[28] = AUC in […] at 10 mg/kg, po or 2 mg/kg, iv measured upto 24 hrs; assay type: ADME, organism-based; design: dose 10 mg/kg, time <=24; conditions: in vivo
[29] = Toxicity in NU/NU mouse at 100 mg/kg; assay type: organism-based; conditions: in vivo

Sequence of Focal adhesion kinase 1 (Homo sapiens) (Q05397 2-1052 limits assumed): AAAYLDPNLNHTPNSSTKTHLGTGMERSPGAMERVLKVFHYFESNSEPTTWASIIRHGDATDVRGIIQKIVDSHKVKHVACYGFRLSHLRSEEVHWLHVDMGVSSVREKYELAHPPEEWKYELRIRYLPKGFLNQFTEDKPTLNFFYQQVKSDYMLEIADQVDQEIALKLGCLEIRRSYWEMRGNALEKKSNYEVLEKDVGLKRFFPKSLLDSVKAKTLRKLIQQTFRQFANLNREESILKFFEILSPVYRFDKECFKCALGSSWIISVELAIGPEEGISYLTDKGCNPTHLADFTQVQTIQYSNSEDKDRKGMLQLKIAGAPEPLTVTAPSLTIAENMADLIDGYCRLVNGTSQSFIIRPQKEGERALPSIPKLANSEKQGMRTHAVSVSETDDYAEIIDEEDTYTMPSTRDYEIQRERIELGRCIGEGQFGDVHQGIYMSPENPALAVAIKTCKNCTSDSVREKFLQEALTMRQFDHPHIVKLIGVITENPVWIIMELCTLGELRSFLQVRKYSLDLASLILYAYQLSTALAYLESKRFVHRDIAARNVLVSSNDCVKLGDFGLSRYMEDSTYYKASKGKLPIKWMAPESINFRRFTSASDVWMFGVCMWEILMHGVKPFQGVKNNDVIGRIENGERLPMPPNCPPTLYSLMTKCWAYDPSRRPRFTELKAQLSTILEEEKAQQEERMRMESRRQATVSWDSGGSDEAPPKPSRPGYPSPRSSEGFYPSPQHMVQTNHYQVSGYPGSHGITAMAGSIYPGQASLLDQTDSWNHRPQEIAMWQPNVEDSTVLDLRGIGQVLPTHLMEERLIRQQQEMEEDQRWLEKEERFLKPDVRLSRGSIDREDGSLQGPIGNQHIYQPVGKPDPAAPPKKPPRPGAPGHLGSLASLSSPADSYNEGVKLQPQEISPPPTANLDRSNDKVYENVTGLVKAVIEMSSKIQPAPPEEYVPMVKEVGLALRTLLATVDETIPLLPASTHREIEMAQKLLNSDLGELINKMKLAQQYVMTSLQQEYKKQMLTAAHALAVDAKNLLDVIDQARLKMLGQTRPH
Sequence of Mast/stem cell growth factor receptor Kit (Homo sapiens), P10721 [D816V] (P10721 whole entry D816V, the tested form may be a part): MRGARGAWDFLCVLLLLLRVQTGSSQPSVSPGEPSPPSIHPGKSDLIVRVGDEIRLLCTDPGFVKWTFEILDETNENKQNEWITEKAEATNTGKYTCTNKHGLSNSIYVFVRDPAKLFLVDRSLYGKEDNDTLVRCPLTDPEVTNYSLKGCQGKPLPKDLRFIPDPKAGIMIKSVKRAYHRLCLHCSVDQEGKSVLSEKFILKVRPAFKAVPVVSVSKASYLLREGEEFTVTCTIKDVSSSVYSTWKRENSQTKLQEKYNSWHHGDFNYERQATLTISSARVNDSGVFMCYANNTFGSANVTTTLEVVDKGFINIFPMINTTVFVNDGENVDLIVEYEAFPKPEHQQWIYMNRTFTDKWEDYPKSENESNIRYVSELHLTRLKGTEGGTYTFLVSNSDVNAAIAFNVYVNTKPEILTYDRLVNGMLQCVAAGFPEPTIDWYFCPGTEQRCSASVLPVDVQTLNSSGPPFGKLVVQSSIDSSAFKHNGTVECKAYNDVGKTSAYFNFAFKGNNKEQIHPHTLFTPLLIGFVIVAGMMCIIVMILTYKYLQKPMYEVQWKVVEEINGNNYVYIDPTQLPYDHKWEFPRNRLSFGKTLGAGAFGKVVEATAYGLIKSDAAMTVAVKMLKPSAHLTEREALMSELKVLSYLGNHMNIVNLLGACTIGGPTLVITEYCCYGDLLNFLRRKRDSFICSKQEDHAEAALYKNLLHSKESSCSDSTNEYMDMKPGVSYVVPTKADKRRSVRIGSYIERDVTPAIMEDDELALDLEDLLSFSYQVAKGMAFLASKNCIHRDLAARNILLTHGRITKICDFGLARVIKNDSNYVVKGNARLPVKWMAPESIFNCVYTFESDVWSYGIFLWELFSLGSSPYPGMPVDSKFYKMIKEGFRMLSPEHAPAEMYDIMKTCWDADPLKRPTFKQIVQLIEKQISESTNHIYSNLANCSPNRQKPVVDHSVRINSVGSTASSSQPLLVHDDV
Sequence of Signal transducer and activator of transcription 3 (Homo sapiens) (P40763 whole entry): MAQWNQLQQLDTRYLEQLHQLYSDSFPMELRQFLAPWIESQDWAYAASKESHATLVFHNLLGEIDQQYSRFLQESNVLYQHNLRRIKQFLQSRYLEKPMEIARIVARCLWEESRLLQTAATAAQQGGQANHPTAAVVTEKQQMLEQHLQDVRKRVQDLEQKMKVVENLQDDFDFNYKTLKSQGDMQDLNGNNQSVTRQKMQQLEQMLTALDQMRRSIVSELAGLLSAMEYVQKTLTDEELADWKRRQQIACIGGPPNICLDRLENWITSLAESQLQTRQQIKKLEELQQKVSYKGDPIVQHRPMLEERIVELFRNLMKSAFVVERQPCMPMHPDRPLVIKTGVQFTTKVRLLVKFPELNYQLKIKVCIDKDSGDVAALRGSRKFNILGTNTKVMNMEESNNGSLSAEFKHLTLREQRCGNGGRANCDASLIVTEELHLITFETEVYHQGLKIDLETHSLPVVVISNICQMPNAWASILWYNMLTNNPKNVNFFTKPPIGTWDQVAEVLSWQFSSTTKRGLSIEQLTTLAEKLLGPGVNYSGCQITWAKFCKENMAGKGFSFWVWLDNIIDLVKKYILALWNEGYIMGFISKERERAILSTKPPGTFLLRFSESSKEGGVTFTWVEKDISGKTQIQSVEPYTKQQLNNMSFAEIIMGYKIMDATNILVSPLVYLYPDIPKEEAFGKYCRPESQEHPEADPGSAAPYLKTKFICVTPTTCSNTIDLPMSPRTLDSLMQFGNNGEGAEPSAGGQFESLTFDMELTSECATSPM
Sequence of Non-receptor tyrosine-protein kinase TNK1 (Homo sapiens) (Q13470 whole entry, the tested form may be a part): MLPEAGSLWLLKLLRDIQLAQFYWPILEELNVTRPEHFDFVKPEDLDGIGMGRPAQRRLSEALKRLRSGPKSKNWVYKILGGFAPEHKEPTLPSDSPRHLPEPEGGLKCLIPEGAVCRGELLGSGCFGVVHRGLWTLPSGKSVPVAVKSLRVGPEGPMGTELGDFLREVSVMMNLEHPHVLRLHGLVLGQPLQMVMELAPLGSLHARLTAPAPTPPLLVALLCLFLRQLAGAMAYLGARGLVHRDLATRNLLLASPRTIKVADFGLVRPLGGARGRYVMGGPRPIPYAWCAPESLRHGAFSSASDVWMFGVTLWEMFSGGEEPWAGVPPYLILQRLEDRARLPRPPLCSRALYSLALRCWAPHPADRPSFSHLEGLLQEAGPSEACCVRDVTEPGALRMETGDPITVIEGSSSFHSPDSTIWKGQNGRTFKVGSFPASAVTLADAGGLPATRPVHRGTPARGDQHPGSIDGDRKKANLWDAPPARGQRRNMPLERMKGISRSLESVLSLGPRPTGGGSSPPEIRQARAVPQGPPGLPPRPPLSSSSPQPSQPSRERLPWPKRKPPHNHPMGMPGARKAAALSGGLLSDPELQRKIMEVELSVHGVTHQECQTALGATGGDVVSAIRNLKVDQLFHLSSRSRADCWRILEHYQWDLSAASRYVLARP
Sequence of Serine/threonine-protein kinase 33 (Homo sapiens) (Q9BYT3 whole entry, looked up, the tested form may be a part): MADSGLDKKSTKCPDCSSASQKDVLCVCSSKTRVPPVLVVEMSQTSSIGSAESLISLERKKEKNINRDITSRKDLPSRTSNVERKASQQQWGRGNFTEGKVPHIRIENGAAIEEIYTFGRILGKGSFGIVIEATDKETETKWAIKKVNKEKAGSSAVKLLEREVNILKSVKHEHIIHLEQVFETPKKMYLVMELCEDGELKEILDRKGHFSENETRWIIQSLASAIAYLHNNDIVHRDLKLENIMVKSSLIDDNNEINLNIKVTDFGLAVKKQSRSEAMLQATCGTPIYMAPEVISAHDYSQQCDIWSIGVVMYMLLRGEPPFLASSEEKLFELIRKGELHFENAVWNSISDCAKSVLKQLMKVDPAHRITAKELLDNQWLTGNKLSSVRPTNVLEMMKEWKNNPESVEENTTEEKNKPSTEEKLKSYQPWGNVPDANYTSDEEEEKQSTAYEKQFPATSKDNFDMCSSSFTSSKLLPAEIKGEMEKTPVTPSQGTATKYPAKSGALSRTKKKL
Sequence of Tyrosine-protein kinase JAK3 (Homo sapiens) (P52333 whole entry, the tested form may be a part): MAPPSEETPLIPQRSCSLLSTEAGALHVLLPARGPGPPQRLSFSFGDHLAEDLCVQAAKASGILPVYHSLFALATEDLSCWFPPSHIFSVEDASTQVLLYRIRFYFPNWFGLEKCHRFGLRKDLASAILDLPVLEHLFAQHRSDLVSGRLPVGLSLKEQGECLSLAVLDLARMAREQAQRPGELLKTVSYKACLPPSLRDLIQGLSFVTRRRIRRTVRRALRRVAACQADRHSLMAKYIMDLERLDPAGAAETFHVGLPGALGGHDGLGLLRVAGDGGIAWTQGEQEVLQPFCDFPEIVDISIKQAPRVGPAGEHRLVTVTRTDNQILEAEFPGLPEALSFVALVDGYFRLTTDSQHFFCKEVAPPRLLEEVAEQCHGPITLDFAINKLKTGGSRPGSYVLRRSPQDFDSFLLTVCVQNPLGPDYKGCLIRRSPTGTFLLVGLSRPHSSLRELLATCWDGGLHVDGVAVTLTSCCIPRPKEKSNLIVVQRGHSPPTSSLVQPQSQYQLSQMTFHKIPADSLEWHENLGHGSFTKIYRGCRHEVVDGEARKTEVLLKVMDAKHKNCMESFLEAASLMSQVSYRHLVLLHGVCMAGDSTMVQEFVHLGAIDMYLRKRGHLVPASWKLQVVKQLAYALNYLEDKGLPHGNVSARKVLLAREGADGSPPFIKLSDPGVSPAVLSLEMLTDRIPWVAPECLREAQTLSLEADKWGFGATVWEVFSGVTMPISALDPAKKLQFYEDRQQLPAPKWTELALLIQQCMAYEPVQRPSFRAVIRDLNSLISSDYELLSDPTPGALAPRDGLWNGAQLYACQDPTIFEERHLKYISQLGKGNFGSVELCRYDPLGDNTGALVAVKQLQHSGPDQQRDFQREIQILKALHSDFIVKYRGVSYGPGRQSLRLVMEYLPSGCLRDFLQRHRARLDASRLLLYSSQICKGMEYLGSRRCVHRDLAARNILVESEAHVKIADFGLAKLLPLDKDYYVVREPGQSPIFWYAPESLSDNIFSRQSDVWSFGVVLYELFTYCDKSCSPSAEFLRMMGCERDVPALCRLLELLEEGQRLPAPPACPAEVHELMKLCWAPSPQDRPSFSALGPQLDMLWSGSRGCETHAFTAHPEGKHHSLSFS

## COc1cc(N2CCC(N3CCN(C(=O)CNc4cccc5c4C(=O)N(C4CCC(=O)NC4=O)C5=O)CC3)CC2)ccc1Nc1ncc(Cl)c(Nc2ccccc2P(C)(C)=O)n1 (configuration not stated)
SR [1]
  Activity: Active
SR [2]
  IC50: 2 nM
[3]
  Activity: Active
[4]
  inhibition: Active
HEK-293T
  IC50: 21 nM
NCI-H1975
  IC50: 42 nM
Calu-1 [5]
  Activity: inactive
NCI-H2228
  Activity: Active
A549 [6]
  Activity: Active
A549 [7]
  Activity: Active
Calu-1 [8]
  Activity: Active
SR [9]
  Activity: Active
[10]
  Activity: Active
[11]
  Activity: Active
MDA-MB-231 [12]
  Activity: Active
MDA-MB-231 [13]
  Activity: Active
[14]
  Activity: 0%
[15]
  Activity: 0%
[16]
  Activity: 1%
[17]
  Activity: 1.4%
[18]
  Activity: 2%
[19]
  Activity: 2.3%
[20]
  Activity: 2.5%
[21]
  Activity: 3%
[22]
  Activity: 3.8%
[23]
  Activity: 4%
[24]
  Activity: 5.7%
[25]
  Activity: 8.1%
[26]
  Activity: 8.3%
[27]
  half-life: 426 min
[28]
  AUC at 24 h: 1560 ng·h/mL
[29]
  Activity: Non-Toxic
